Like-named read-outs stand apart in the source and are kept apart here.

Data set [1] relates to human liver cancer QGY7703. The data set is described as follows: Human liver cancer QGY7703 transplanted tumor in nude mice. It is filed as in vivo, BALB/C nude mice. Further details: key to RTV (d 18): RTV = Vt/Vo, tumor volume relative to volume at grouping (d1). The note with it: for inhibition in vivo at 100 mg/kg: Mus musculus, read-out: Tumor inhibitory rate %. The protocol: A human liver cancer QGY7703 model transplanted into nude mice was used in the experiment to investigate the anti-tumor effect of test compounds. The mice were intravenously injected at a dosage of 100 mg/kg for 14 days, and the tumor inhibition rate against human liver cancer QGY7703 was measured.
Preparation: The compound was prepared as the injection at the desired concentration with sterile normal saline, prior to administration.
Animal strain: BALB/C nude mice (SPF grade), weight: 19-21 g, gender: male. Number of animals in each treatment group: 8; number of animals in the control group: >12.
The tumor blocks of human liver cancer QGY7703 with good growth were cut into uniform small pieces of 3 mm under sterile conditions, and then subcutaneously inoculated into the right armpit of each mouse with a cannula. These mice were divided into 9 groups, 8 mice for each treatment group, while more than 12 mice were included in the control group.
14 days after inoculation, the average volume of the tumor block was about 100 mm^3. The animals were regrouped based on the size of the tumor, and the animals with tumors that were too large and too small were sifted out. For each group, the average volume of tumors was basically the same, and then the mice were initially treated with test compounds. The mice in the treatment groups were intravenously injected once a day for 14 days, at a dosage of 0.1 mL/20 g body weight; the mice in the control group were given the same volume of sterile normal saline. From the 14th day of inoculation, the long diameter a (mm) of the tumor, together with the perpendicular short diameter b (mm), was measured using a digital electronic caliper, twice a week. The calculation formula of tumor volume is: TV=ab^2/2, and the formula for calculating the relative tumor volume is RTV=Vt/Vo, wherein Vo denotes the tumor volume measured when the mice were divided into groups (i.e. d1), and Vt is the tumor volume from each measurement.
The result determination is based on the following formula: […]

In data set [2] the test system is human liver cancer Bel7404. The data set is described as follows: Compound 3 combined with lenvatinib, human liver cancer Bel7404 xenograft in nude mice. It is filed as in vivo. The conditions noted are these: po: lenvatinib 10 mg/kg, compound 3 400 mg/kg, combination 10 + 400. The text has this:
Experimental method: The model of human liver cancer Bel7404 transplant tumor in nude mice was established by subcutaneously inoculating human liver cancer Bel7404 cell lines into the armpits of nude mice. Cells were inoculated in an amount of 1×10^6, and after formation of the transplanted tumors by inoculation, the cells were passed 3 generations in nude mice before use. The vigorous growth of tumor tissue was cut into approximate 1.5 mm^3, and homogenized under sterile conditions, to prepare 1×10^7/mL of cell suspension. 0.1 mL of cell suspension was subcutaneously inoculated into the right armpit of nude mice. For transplanted tumors in nude mice, the diameter of the transplanted tumor was measured with vernier caliper. After the tumor grew to 100 mm^3, the animals were randomly divided into groups, with 6 animals in each group. Using the method of measuring tumor diameter, the anti-tumor effect of test compound was dynamically observed. Compound 3 was orally administered at 400 mg/kg, once a day, for three weeks; lenvartinib was also orally administered at 10 mg/kg, once a day, for two weeks. The measurement frequency of tumor diameter was once every three days. The animals in the negative control group were orally given an equal amount of physiological saline. The effect of combined medicaments was evaluated based on the Q value calculated by the Jin's formula: […]
Ea+b represents the tumor inhibitory rate of the combined medicaments, while Ea and Eb represent the tumor inhibitory rates of medicament A and medicament B, respectively. For example, the Q value of 0.85-1.15 means additive action (+), and the Q value of >1.15 means synergistic action (++).
On the technique in general: Xenograft models place foreign cells or tissue in a host animal.

The subject of data set [3] is ocular surface neovascularization. The data set is described as follows: Neovascularization of ocular surface in rats (NaOH cornea model). The format is in vivo, SD rats. The conditions noted are these: 50 μL/eye, 3 times/day, 10 days. The protocol:
Four SD rats, regardless of gender, were subjected to single eye modeling, with a total of four eye models. One eye was used as a blank control (untreated group), one eye was used as a model control, one eye was used as treatment group 1, and one eye was used as treatment group 2.
The rats were anesthetized with pentobarbital sodium (25-30 mg/(kg, intraperitoneal injection), and two drops of oxybuprocaine hydrochloride eye drops were administrated to both eyes for ocular surface anesthesia. 30 μL of NaOH solution (1 mol/L) was placed with a pipette on a dry filter paper with a diameter of approximate 3 mm for 10 seconds. The moistened circular filter paper was gently applied to the center of the cornea (covering the corneoscleral margin) of the model eye, and a tight fit was kept for suitable time. The filter paper was removed, and then physiological saline was used to wash the eye, which was rinsed with a needle for 1 minute. After operation, ofloxacin eye ointment was applied to prevent infection (3 times/day, for 5 days).
On the 5th day (D5), neovascularization began to appear, and D5 was the first day of administrating the test compound (d1). Three eye drops were administered daily for 10 consecutive days (d10). […] After completion of the experiment, the rats were euthanized.
Blank control group (untreated group): no any treatment, no modeling, no administration. […]

Where [4] appears, read: QGY-7703, QGY7703, 100 mg/kg iv × 14.

Turning to `COc1cc(/C=C(/C(=O)O)c2cc(OC)c(OC)c(OC)c2)cc(OC)c1` [Compound 3, (E)-3-(3,5-dimethoxyphenyl)-2-(3,4,5-trimethoxyphenyl)acrylic acid], the inhibition in vivo at 100 mg/kg in data set [1] (QGY-7703, iv) stood at 63.7%. Also, in data set [1] (QGY7703, 100 mg/kg iv × 14), the “RTV (d 18)” value came to 4.67 ± 0.63. In addition, in data set [2], the “RTV (d 21)” value was determined as 3.54 ± 1.87, the “Terminal weight” value came out at 22.4 ± 0.6 g and the “Tumor inhibitory rate %” value amounted to 68.47%.
Regarding `COc1ccc(/C=C(/C(=O)O)c2cc(OC)c(OC)c(OC)c2)cc1F` [Compound 4, (E)-3-(3-fluoro-4-methoxyphenyl)-2-(3,4,5-trimethoxyphenyl)acrylic acid], the inhibition in vivo at 100 mg/kg in data set [1] (QGY-7703, iv) was 60.3%. In data set [1] (QGY7703, 100 mg/kg iv × 14), the “RTV (d 18)” value amounted to 5.11 ± 0.76.
In the case of `COc1ccc(/C=C(/C(=O)O)c2cc(OC)c(OC)c(OC)c2)cc1O` [Compound 6, (E)-3-(3-hydroxy-4-methoxyphenyl)-2-(3,4,5-trimethoxyphenyl)acrylic acid], in data set [1] (setting [4]), the inhibition in vivo at 100 mg/kg worked out at 71.6%. Also, in data set [1] (QGY7703, 100 mg/kg iv × 14), the “RTV (d 18)” value turned out to be 3.65 ± 0.47 and the “Tumor inhibitory rate %” value is reported as “best inhibitory effect on liver cancer”. Moreover, the Vascularization area result in data set [3] (high-dose group, eye drops 25 mg/mL) is on record as “significantly decreased”. The “Neovascularization of the ocular surface” value in data set [3] (treatment groups, eye drops 10 or 25 mg/mL, vs model group) is “reduced compared to the model group”.
As to `COc1ccc(/C=C(/C(=O)O)c2cc(OC)c(OC)c(OC)c2)c(F)c1O` [Compound 9, (E)-3-(2-fluoro-3-hydroxy-4-methoxyphenyl)-2-(3,4,5-trimethoxyphenyl)acrylic acid], in data set [1] (setting [4]), the inhibition in vivo at 100 mg/kg is 63.7%. Besides, the “RTV (d 18)” value in data set [1] (QGY7703, 100 mg/kg iv × 14) came out at 4.67 ± 0.58.
For the molecule `COc1cc(/C=C(/C(=O)[O-])c2cc(OC)c(OC)c(OC)c2)cc(OC)c1F.[K+]` [Compound 10], the inhibition in vivo at 100 mg/kg in data set [1] (QGY-7703, iv) was found to be 61.3%. The “RTV (d 18)” value in data set [1] (QGY7703, 100 mg/kg iv × 14) was found to be 4.98 ± 0.72.

The values are drawn from patent US20240130988A1, “Use of stilbene compounds in the preparation of anti-tumor drugs” (Guangzhou AnHao Pharmaceutical Technology CO., LTD., priority 2022, published 2024).
